# Measurements as given in ChEMBL document CHEMBL2375230 (J Med Chem, 2013).
# The source made the active and inactive calls. The calls are words filed in the database; no cut-off is given here.
# Experiments:
# HeLa [1] = test: Antiproliferative activity against human HeLa cells after 30 hrs by [3H]-thymidine incorporation assay; type: functional, cell-based
# HUVEC [2] = test: Antiproliferative activity against HUVEC after 30 hrs by [3H]-thymidine incorporation assay; type: functional, cell-based, Homo sapiens
# [3] = Solubility of the compound; type: physicochemical
# [4] = Antiproliferative activity against HDFa cells after 30 hrs by [3H]-thymidine incorporation assay; type: functional, cell-based, Homo sapiens
# [5] = biological target: T1, Methionine aminopeptidase 1 (Homo sapiens, UniProt P53582); test: Inhibition of human methionine aminopeptidase 1 in presence of Mn2+
# [6] = biological target: Methionine aminopeptidase 2 (Homo sapiens, UniProt P50579); test: Inhibition of human methionine aminopeptidase 2 in presence of Mn2+
# Sequence of Methionine aminopeptidase 2 (P50579 whole entry): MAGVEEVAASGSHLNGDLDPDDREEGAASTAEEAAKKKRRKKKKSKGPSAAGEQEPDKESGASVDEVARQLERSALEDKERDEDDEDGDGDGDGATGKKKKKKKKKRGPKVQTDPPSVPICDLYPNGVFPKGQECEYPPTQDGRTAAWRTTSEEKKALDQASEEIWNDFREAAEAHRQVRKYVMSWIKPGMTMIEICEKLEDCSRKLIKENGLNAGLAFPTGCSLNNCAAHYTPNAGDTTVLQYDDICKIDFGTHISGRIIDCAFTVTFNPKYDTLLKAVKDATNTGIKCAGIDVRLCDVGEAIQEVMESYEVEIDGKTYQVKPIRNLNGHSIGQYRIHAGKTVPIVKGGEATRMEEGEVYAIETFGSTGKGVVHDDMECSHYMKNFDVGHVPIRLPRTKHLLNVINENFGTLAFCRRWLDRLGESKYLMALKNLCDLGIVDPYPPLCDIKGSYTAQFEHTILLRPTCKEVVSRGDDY
# [7] = biological target: T1, Methionine aminopeptidase 1; test: Inhibition of human methionine aminopeptidase 1 in presence of Co2+
# HUVEC [8] = test: Inhibition of methionine aminopeptidase in HUVEC assessed as increase in unprocessed 14-3-3gamma level at 0.1 to 10 uM by immunoblotting analysis in presence of cycloheximide; type: cell-based; conditions: Homo sapiens
# HUVEC [9] = test: Inhibition of methionine aminopeptidase in HUVEC assessed as increase in unprocessed 14-3-3gamma level at 0.1 to 10 uM by immunoblotting analysis; type: cell-based; conditions: Homo sapiens
# HUVEC [10] = test: Inhibition of methionine aminopeptidase in HUVEC assessed as accumulation of unprocessed 14-3-3gamma at 1 nM after 24 hrs by immunoblotting analysis; type: cell-based; conditions: Homo sapiens
# [11] = biological target: T1, Methionine aminopeptidase 1; test: Inhibition of methionine aminopeptidase 1 in HEK293 cells expressing 3xFLAG-tagged BTF3 assessed as increase in [35S]-Met in solution at 100 nM after 30 mins by scintillation counting analysis; type: cell-based
# HeLa [12] = test: Inhibition of methionine aminopeptidase in human HeLa cells assessed as increase in ratio of unprocessed 14-3-3gamma to total 14-3-3gamma at 0.1 uM after 24 hrs by immunoblotting analysis relative to DMSO-treated control; type: cell-based
# HEK293 = test: Inhibition of methionine aminopeptidase in HEK293 cells assessed as increase in ratio of unprocessed 14-3-3gamma to total 14-3-3gamma at 0.1 uM after 24 hrs by immunoblotting analysis relative to DMSO-treated control; type: cell-based; conditions: Homo sapiens
# E6-1 = test: Inhibition of methionine aminopeptidase in human Jurkat E6-1 cells assessed as increase in ratio of unprocessed 14-3-3gamma to total 14-3-3gamma at 0.1 uM after 24 hrs by immunoblotting analysis relative to DMSO-treated control; type: cell-based
# HUVEC [13] = test: Inhibition of methionine aminopeptidase in HUVEC assessed as accumulation of unprocessed 14-3-3gamma at 10 nM after 24 hrs by immunoblotting analysis; type: cell-based; conditions: Homo sapiens
# Homo sapiens = species on record: Homo sapiens; test: Inhibition of methionine aminopeptidase in HUVEC assessed as increase in ratio of unprocessed 14-3-3gamma to total 14-3-3gamma at 0.1 uM after 24 hrs by immunoblotting analysis relative to control
# MCF7 = test: Inhibition of methionine aminopeptidase in human MCF7 cells assessed as increase in ratio of unprocessed 14-3-3gamma to total 14-3-3gamma at 0.1 uM after 24 hrs by immunoblotting analysis relative to DMSO-treated control; type: cell-based
# PC-3 = test: Inhibition of methionine aminopeptidase in human PC3 cells assessed as increase in ratio of unprocessed 14-3-3gamma to total 14-3-3gamma at 0.1 uM after 24 hrs by immunoblotting analysis relative to DMSO-treated control; type: cell-based
# [14] = biological target: T1, Methionine aminopeptidase 1; test: Inhibition of human methionine aminopeptidase 1 up to 250 uM
# [15] = biological target: T1, Methionine aminopeptidase 1; test: Inhibition of human methionine aminopeptidase 1 in presence of Zn2+
# [16] = Antiproliferative activity against HDFa cells at 30 uM after 30 hrs by [3H]-thymidine incorporation assay relative to control; type: functional, Homo sapiens
# HDFa = test: Antiproliferative activity against HDFa cells at 10 uM after 30 hrs by [3H]-thymidine incorporation assay; type: functional, cell-based; conditions: Homo sapiens
# HUVEC [17] = test: Antiproliferative activity against HUVEC at 30 uM after 30 hrs by [3H]-thymidine incorporation assay relative to control; type: functional, Homo sapiens
# HUVEC [18] = test: Cytotoxicity against HUVEC at 10 uM after 24 hrs; type: cell-based; conditions: human
compound,measurement,setting,value
Cc1nc(-c2ccccn2)nc(NCCNc2ccc(C(F)(F)F)cn2)c1Cl,EC50,"HeLa [1]; Homo sapiens, HeLa",10 µM
same,EC50,"HUVEC [2]; Homo sapiens, HUVEC",4.3 µM
same,solubility,[3],40 µM
same,EC50,"[4]; Homo sapiens, HDFa",1.9 µM
Clc1nc(-c2ccccn2)nc2ccccc12,EC50,[5],> 100 µM
same,EC50,[6],> 100 µM
same,EC50,[7],1.5 µM
CO[C@@H]1[C@H](OC(=O)NC(=O)CCl)CC[C@]2(CO2)[C@H]1[C@@]1(C)O[C@@H]1CC=C(C)C,inhibition,HUVEC [8],inactive
same,inhibition,HUVEC [9],Active
same,inhibition,HUVEC [10],Active
same,inhibition,[11],inactive
CCCCCCCCCCCCCC(=O)O[C@H]1CC[C@H](NC(=O)[C@H](OC)[C@H](O)[C@@H](O)[C@H](O)/C=C/C(C)C)C(=O)NC1,inhibition,HUVEC [8],inactive
same,inhibition,HUVEC [9],Active
same,Ratio,HeLa [12],2.3
same,Ratio,HEK293,2.1
same,Ratio,E6-1,1.4
same,inhibition,HUVEC [13],Active
same,Ratio,Homo sapiens,8.1
CCCCCCCCCCCCCC(=O)O[C@H]1CC[C@H](NC(=O)[C@H](OC)[C@H](O)[C@@H](O)[C@H](O)/C=C/C(C)C)C(=O)N(C)C1,Ratio,MCF7,2.6
same,Ratio,PC-3,2.1
CN1CCN(c2cc(-c3ccccn3)nc3ccccc23)CC1,EC50,[5],> 100 µM
same,EC50,[6],> 100 µM
same,EC50,[7],0.87 µM
c1ccc(-c2cc(N3CCOCC3)c3ccccc3n2)nc1,EC50,[5],> 100 µM
same,EC50,[6],> 100 µM
same,EC50,[7],0.41 µM
c1ccc(CCNc2nc(-c3ccccn3)nc3ccccc23)cc1,EC50,[5],24 µM
same,EC50,[6],> 100 µM
same,EC50,[7],0.94 µM
c1ccc2[nH]c(-c3cscn3)nc2c1 [THIABENDAZOLE],inhibition,[14],inactive
same,EC50,"HUVEC [2]; Homo sapiens, HUVEC",> 250 µM
same,EC50,"[4]; Homo sapiens, HDFa",> 250 µM
same,EC50,[5],> 100 µM
same,EC50,[15],> 250 µM
same,EC50,[7],3.4 µM
c1ccc(-c2nc(N3CCOCC3)c3ccccc3n2)nc1,EC50,[5],41 µM
same,EC50,[6],> 100 µM
same,EC50,[7],0.049 µM
c1ccc(-c2ccccn2)nc1,Activity,[16],94%
same,EC50,"[4]; Homo sapiens, HDFa",10 µM
same,Activity,HDFa,inactive
c1ccc(-c2cc(N3CCCCC3)c3ccccc3n2)nc1,EC50,[5],> 100 µM
same,EC50,[6],> 100 µM
same,EC50,[7],0.39 µM
Cc1nc(-c2ccccn2)nc(NCCc2ccccc2)c1Cl,EC50,"HeLa [1]; Homo sapiens, HeLa",7.1 µM
same,EC50,"HUVEC [2]; Homo sapiens, HUVEC",11 µM
same,solubility,[3],90 µM
same,EC50,"[4]; Homo sapiens, HDFa",3.6 µM
same,Activity,HUVEC [17],>90%
c1ccc(-c2nc(N3CCCCC3)c3ccccc3n2)nc1,EC50,[5],7.6 µM
same,EC50,[6],> 100 µM
same,EC50,[7],0.11 µM
Cc1nc(-c2ccc(Cl)cn2)nc(NC[C@@H](NCCCCc2ccccc2)c2ccccc2)c1Cl,EC50,"HeLa [1]; Homo sapiens, HeLa",0.97 µM
same,solubility,[3],40 µM
same,EC50,"[4]; Homo sapiens, HDFa",0.76 µM
same,Activity,HUVEC [18],Toxic
CC(C)(C)OC(=O)Nc1cccnc1C(=O)Nc1nccs1,EC50,"HeLa [1]; Homo sapiens, HeLa",2.3 µM
same,EC50,HeLa [1]; hela,2 µM
same,EC50,"HUVEC [2]; Homo sapiens, HUVEC",2 µM
same,EC50,HUVEC [2]; huvec,1.5 µM
same,EC50,"[4]; Homo sapiens, HDFa",0.79 µM
same,EC50,[4]; hdfa,0.65 µM
c1ccc(NCCNc2nc(-c3ccccn3)nc3ccccc23)cc1,EC50,[5],> 100 µM
same,EC50,[6],> 300 µM
same,EC50,[7],1.6 µM
